Conditions: pH 7.4

| SMILES | logD |
| --- | --- |
| NS(=O)(=O)c1cc2cc(C(=O)NCC(O)CO)sc2s1 (configuration not stated) | 0.35 |
| CS(=O)CCNC(=O)c1cc2cc(S(N)(=O)=O)sc2s1 (configuration not stated) | -0.15 |

Source: the SangsterLogP compilation
